Experimental data taken from US20260115187A1, “TRICYCLIC SKELETON COMPOUND AND USE THEREOF IN PREPARATION OF ANTITUMOR DRUG” (ZHONGSHAN HOSPITAL, FUDAN UNIVERSITY, priority 2024, published 2026).
Like-named read-outs stand apart in the source and are kept apart here.

Assays:
[1] = tested on: PLC/PRF/5 KSR2 OE (PLC cells overexpressing KSR2); assay: Cell IC50 assay (CCK8 cell viability), PLC/PRF/5 KSR2 OE; type: cell-based; conditions: Homo sapiens, read-out: IC50 value of cell viability, PLC/PRF/5 KSR2 OE (PLC cells overexpressing KSR2)
Method: (§1) (1) Cell Preparation: Hepatoma cells (PLC/PRF/5, sourced from the Chinese Academy of Sciences; MHCC97H, sourced from this research institute) in good growth condition are prepared. The cells are trypsinized, diluted, and seeded into 96-well cell culture plates. 1,000-3,000 cells are added per well. The plates are then placed in a cell culture incubator at 37° C. with 5% CO2. Drugs are added after the cells have adhered for 24 h.
(§2) (2) Drug Addition: The drugs are subjected to gradient dilution, typically setting 9 concentrations. Control groups containing no drug medium and medium containing only the drug solvent are also set up. The diluted drugs are added to the cell culture plates seeded the previous day. The plates are incubated for 72 h.
(§3) (3) CCK8 Assay for Cell Viability: CCK8 is mixed with culture medium at a 1:10 ratio. 100 μL of this mixture is added to each well of the cell culture plate. After incubating for 2-4 h, the OD values are measured using a microplate reader.
(§4) (4) Data Analysis: Based on the corresponding OD values, the data are compiled, IC50 curves are plotted, and the IC50 values are obtained.
(§5) (5) IC50 Verification: The theoretical IC50 value is identified from the IC50 curve. Drug concentrations at ½ times, 1 time, and 2 times this theoretical value are used for verification.

[2] = tested on: MHCC97H KSR2 OE (97H cells overexpressing KSR2); assay: Cell IC50 assay (CCK8 cell viability), MHCC97H KSR2 OE; type: cell-based; conditions: Homo sapiens
Method: as §1, §2, §3, §4, §5

[3] = read-out: IC50 value of cell viability, MHCC97H KSR2 OE (97H cells overexpressing KSR2)
[4] = PLC-PRF-5, hepatoma cells, 72 h incubation, CCK8
[5] = hepatoma cells, 72 h incubation, CCK8, read-out: IC50 value of cell viability, MHCC97H KSR2 OE (97H cells overexpressing KSR2)

SMILES | IC50 ([1]; PLC-PRF-5, 72 h) | IC50 [2, 3] | IC50 [1, 4] | IC50 [2, 5]
Cn1nc(C(=O)NCCCN2CCN(C3CCC(F)(F)CC3)CC2)c2c1-c1ccccc1SC2 [Compound 1] | 45 µM | 41 µM | – | –
Cn1nc(C(=O)NCCCN2CCN(C3CCOCC3)CC2)c2c1-c1ccccc1SC2 [Compound 2] | 84 µM | > 100 µM | – | –
Cn1nc(C(=O)NCCCN2CCN(C3CCCC3)CC2)c2c1-c1ccccc1SC2 [Compound 3] | – | – | 32 µM | 56 µM
Cn1nc(C(=O)NCCCN2CCN(C3CC4(CCC4)C3)CC2)c2c1-c1ccccc1SC2 [Compound 4] | – | – | 22 µM | 15 µM
Cn1nc(C(=O)NCCCN2CCN(CC3CC3)CC2)c2c1-c1ccccc1SC2 [Compound 5] | 25 µM | 44 µM | – | –
Cn1nc(C(=O)NCCCN2CCN(C3CCC3)CC2)c2c1-c1ccccc1SC2 [Compound 6] | 42 µM | 70 µM | – | –
Cn1nc(C(=O)NCCCN2CCN(C3CCCCC3)CC2)c2c1-c1ccccc1S(=O)(=O)C2 [Compound 7] | – | – | 85 µM | 88 µM
Cn1nc(C(=O)NCCCN2CCN(C3CCCCC3)CC2)c2c1-c1ccccc1SC2 [Compound 8] | 61 µM | 62 µM | – | –
Cn1nc(C(=O)NCCCN2CCN(Cc3ccccc3)CC2)c2c1-c1ccccc1SC2 [Compound 10] | 16 µM | 38 µM | – | –
Cn1nc(C(=O)NCCN2CCN(C3CCCCC3)CC2)c2c1-c1ccccc1SC2 [Compound 11] | 35 µM | 62 µM | – | –
CN(CCCN1CCN(C2CCCCC2)CC1)C(=O)c1nn(C)c2c1CSc1ccccc1-2 [Compound 12] | – | – | 56 µM | 86 µM
Cn1nc(C(=O)NCCCN2CCC(N3CCCCC3)CC2)c2c1-c1ccccc1SC2 [Compound 13] | – | – | 2 µM | 2 µM
CCn1nc(C(=O)NCCCN2CCN(C3CCCCC3)CC2)c2c1-c1ccccc1SC2 [Compound 14] | – | – | 39 µM | 14 µM
O=C(NCCCN1CCN(C2CCCCC2)CC1)c1nn(CC2CC2)c2c1CSc1ccccc1-2 [Compound 15] | – | – | 10 µM | 39 µM
Cn1nc(C(=O)NCCCN2CCN(C3CCCCC3)CC2)c2c1-c1ccccc1OC2 [Compound 16] | – | – | 26 µM | 46 µM
Cn1nc(C(=O)NCCCN2CCN(C3CCCCC3)CC2)c2c1-c1ccccc1CC2 [Compound 17] | – | – | 21 µM | 57 µM
Cn1nc(C(=O)NCC(O)CN2CCN(c3ccccc3)CC2)c2c1-c1ccccc1SC2 (centres unmarked) [Compound 18] | – | – | 42 µM | 40 µM
Cn1nc(C(=O)NCCCN2CCN(c3ccccn3)CC2)c2c1-c1ccccc1SC2 [Compound 19] | – | – | 40 µM | 40 µM
Cn1nc(C(=O)NCCCN2CCN(c3cccnc3)CC2)c2c1-c1ccccc1SC2 [Compound 20] | – | – | 29 µM | 32 µM
Cn1nc(C(=O)NCCCN2CCN(c3ccncc3)CC2)c2c1-c1ccccc1SC2 [Compound 21] | – | – | 7 µM | 6 µM
Cn1nc(C(=O)NCCCN2CCN(c3ccccc3Cl)CC2)c2c1-c1ccccc1SC2 [Compound 22] | – | – | 15 µM | 30 µM
Cn1nc(C(=O)NCC(F)(F)CN2CCN(c3ccccc3)CC2)c2c1-c1ccccc1SC2 [Compound 23] | – | – | 8 µM | 8 µM
Cn1nc(C(=O)NCCCN2CCN(c3cccc(Cl)c3)CC2)c2c1-c1ccccc1SC2 [Compound 24] | – | – | 18 µM | 39 µM
Cn1nc(C(=O)NCCCN2CCN(c3ccc(Cl)cc3)CC2)c2c1-c1ccccc1SC2 [Compound 25] | – | – | 20 µM | 37 µM
Cn1nc(C(=O)NCCCN2CCN(c3ccc(C(F)(F)F)cc3)CC2)c2c1-c1ccccc1SC2 [Compound 26] | – | – | 14 µM | > 100 µM

SMILES | IC50 ([1]; PLC-PRF-5, 72 h) | IC50 [2, 3] | IC50 [1, 4] | IC50 [2, 5]
COc1ccc(N2CCN(CCCNC(=O)c3nn(C)c4c3CSc3ccccc3-4)CC2)cc1 [Compound 27] | – | – | 31 µM | 13 µM
Cn1nc(C(=O)NCCCN2CCN(c3ncccn3)CC2)c2c1-c1ccccc1SC2 [Compound 28] | – | – | 11 µM | 31 µM
Cn1nc(C(=O)NCCCN2CCN(c3ccc(C#N)cc3)CC2)c2c1-c1ccccc1SC2 [Compound 29] | – | – | 41 µM | 2 µM
CN1CCN(C2CCN(CCCNC(=O)c3nn(C)c4c3CSc3ccccc3-4)CC2)CC1 [Compound 30] | – | – | 9 µM | 6 µM
Cn1nc(C(=O)NCCCN2CCC(c3ccccc3)CC2)c2c1-c1ccccc1SC2 [Compound 31] | – | – | 21 µM | 19 µM
Cn1nc(C(=O)NCCCN2CCC(O)(c3ccccc3)CC2)c2c1-c1ccccc1SC2 [Compound 32] | – | – | 17 µM | 16 µM
CN1CCN(C2CCN(CC(F)(F)CNC(=O)c3nn(C)c4c3CSc3ccccc3-4)CC2)CC1 [Compound 33] | – | – | 19 µM | 18 µM
Cn1nc(C(=O)NCC(F)(F)CN2CCC(N3CCCCC3)CC2)c2c1-c1ccccc1SC2 [Compound 34] | – | – | 12 µM | 14 µM
Cn1nc(C(=O)NCC(F)(F)CN2CCC(N3CCOCC3)CC2)c2c1-c1ccccc1SC2 [Compound 35] | – | – | 28 µM | 22 µM
Cn1nc(C(=O)NCCCN2CCC(N3CCCCC3)C(F)(F)C2)c2c1-c1ccccc1SC2 (centres unmarked) [Compound 36] | – | – | 62 µM | 71 µM
Cn1nc(C(=O)NCC(F)(F)CN2CCC(N3CCC(F)(F)CC3)CC2)c2c1-c1ccccc1SC2 [Compound 37] | – | – | 19 µM | 28 µM
Cn1nc(C(=O)NCCCN2CCC(N3CCCC3)CC2)c2c1-c1ccccc1SC2 [Compound 38] | – | – | 3 µM | 4 µM
CC(CNC(=O)c1nn(C)c2c1CSc1ccccc1-2)CN1CCN(c2ccccc2)CC1 (centres unmarked) [Compound 40] | – | – | 21 µM | > 100 µM
Cn1nc(C(=O)NCCCN2CCC(N3CCNCC3)CC2)c2c1-c1ccccc1SC2 [Compound 41] | – | – | 8 µM | 7 µM
Cn1nc(C(=O)NCCCN2CCC(N3CCOCC3)CC2)c2c1-c1ccccc1SC2 [Compound 42] | – | – | 43 µM | 39 µM
Cn1nc(C(=O)NCCCN2CCC(N3CCC(F)(F)C3)CC2)c2c1-c1ccccc1SC2 [Compound 43] | – | – | 41 µM | 43 µM
CCN1CCN(C2CCN(CCCNC(=O)c3nn(C)c4c3CSc3ccccc3-4)CC2)CC1 [Compound 44] | – | – | 2 µM | 0.2 µM
CN(C)C1CCN(CCCNC(=O)c2nn(C)c3c2CSc2ccccc2-3)CC1 [Compound 45] | – | – | 5 µM | 6 µM
Cn1nc(C(=O)NCCCN2CCC(N3CCC(O)C3)CC2)c2c1-c1ccccc1SC2 (centres unmarked) [Compound 46] | – | – | 2 µM | 6 µM
Cn1nc(C(=O)NCCCN2CCC(N3CCC3)CC2)c2c1-c1ccccc1SC2 [Compound 47] | – | – | 2 µM | 4 µM
Cn1nc(C(=O)N2CC(CN3CCC(N4CCCC4)CC3)C2)c2c1-c1ccccc1SC2 [Compound 49] | – | – | 7 µM | 7 µM
CN1CCN(C2CCN(CCCNC(=O)c3nn(C)c4c3COc3ccccc3-4)CC2)CC1 [Compound 50] | – | – | 7 µM | 6 µM
Cn1nc(C(=O)NCC2CC(N3CCC(N4CCCC4)CC3)C2)c2c1-c1ccccc1SC2 (centres unmarked) [Compound 51] | – | – | 1 µM | 1 µM
CN(C)C1CCN(CCCNC(=O)c2nn(C)c3c2CSc2ccccc2-3)C1 (centres unmarked) [Compound 52] | – | – | 59 µM | 50 µM
